Test results from patent publication EP3222276B1, “PHARMACEUTICAL COMPOSITION FOR TREATING CANCER AND BIOMARKER FOR DRUG SCREENING” (National Defense Medical Center, priority 2014, dated 2016).

Legend:
[1] = tested on: pDAPK^S308; test: Western blot of DAPK S308 phosphorylation in ACHN cells; type: cell-based, Human; conditions: various concentrations, only when provided 30 minutes prior to the combination drugs
Method: (§1) The combination therapy of sorafenib and GW5074 induces cell necrosis through the dephosphorylation of the death-associated DAPK at serine 308 followed by dissociation from proto-oncogene c-Raf. Cells were cultured as described in example 1, washed with phosphate buffered saline (PBS), and stained with the annexin V-FITC and propidium iodide (PI) for 15 minutes. The presence of fluorescent Annexin V as well as propidium iodide (PI) was detected by flow cytometry so as to determine whether the cell death is caused by apoptosis or necrosis. The expression of c-Raf and DAPK as well as the phosphorylation level of DAPK were examined by Western blot and immunoprecipitation using antibodies. Anti-DAPK antibodies or non-immune rabbit IgG (IP: immunoglobulin) were included as negative controls, and cell survival was measured by SRB assay, as shown In example 1. In this experiment, ACHN cells were treated separately with DMSO (as a control group), 5 µM sorafenib, 10 µM GW5074, or the combination therapy of 5 µM sorafenib and 10 µM GW5074 for 24 hours.

[2] = tested on: ACHN cells; test: SRB assay of cell survival / growth inhibition; type: cell-based, Human; conditions: 5 µM sorafenib or 10 µM GW5074 alone, or both combined (GW5074 30 minutes before sorafenib); 24 hours
Method: Human renal carcinoma (ACHN) cells were cultured in Eagle MEM (Minimum Essential Medium) with 10% FBS (Fetal Bovine Serum) and 1% penicillin/streptomycin. Sulforhodamine B (SRB) is a negative […] with a sulfonic acid group and binds to basic amino acids of intracellular proteins in weak acidic conditions. The SRB […] was extracted from cells using weak alkaline solution and then subjected to absorbance measurement. The amount of intracellular proteins, which is an indicator for cell survival, can be calculated from the amount of SRB.

[3] = tested on: ACHN cells; test: ACHN xenograft in immunodeficient mice, tumor volume; type: in vivo; conditions: 5 mg/kg sorafenib oral, 10 mg/kg GW5074 s.c., alone or combined; once a day for three weeks; n=8
Method: Six-week old immnunodeficient male mice (BALB/cAnN.Cg-Foxn1^nu/CrlNarl) with an average weight of 20 grams were xenografted with 1x10^7 ACHN cells to the right by […]. The mice were maintained in a specific pathogen-free (SPF) environment. The size of tumor was measured using a digital caliper twice a week and tumor volume was calculated by the equation of length^∗width^∗height^∗0.5. […] A total of four groups were included in the experiment: a control group which received only vehicle (DMSO), […], 25 mg/kg GW5074, […], respectively, with 8 mice in each group.

[4] = tested on: Luc-ACHN-LL cells; test: Orthotopic metastasis model of renal carcinoma, IVIS photon signal and survival; type: in vivo, mice; conditions: for death within, following injection of cancer cells: 10 mg/kg sorafenib alone or 25 mg/kg GW5074 alone
Method: To simulate clinical phenomenon, we established an orthotopic spontaneous animal model for studying metastasis of renal carcinoma. First, ACHN cells were transfected with the luciferase gene and the resultamt Luc-ACHN transfectants (stable transfectants which express the luciferase) with different expression levels were then selected for in vivo culture in mice by subcutaneous injection. Six-week old and shaved mice were subcutaneously injected with 1×10^7 Luc-ACHN cells In 0.1 ml PBS. Two months after the injection, the mice were sacrificed and their kidneys, livers, regional lymph nodes as well as other organs were collected for assessing tumor cells that were potentially metastatic, which was confirmed by hematoxylin-eosin (H&E) staining. Tumor cell lines that are highly metastatic were dissected in 1 ml PBS into small pieces aseptically and then cultured in MEM media containing 10% FBS (fetal bovine serum) and 1% penicillin/streptomycin following centrifugation. A few days later, monoclonal cell lines were first treated with the trypsin to dissociate the cells and then cultured in vitro. The cells obtained from liver tumor tissues were named ACHN-L. The metastatic potential of various monoclonal cell lines collected from different organs was further analyzed by xenografting these tumor cells to the left kidneys of mice. The xenografted mice were sacrificed and examined 8 weeks after the injection of tumor cells. The tumor growth observed in each organ was investigated through visual examination and histology procedures. The metastatic cells found in the liver were dissected into small pieces aseptically and cultured in vitro. The cells obtained from liver tumor tissues were named ACHN-L (subcutaneous injection) cells and the cells collected from the metastatic lesions after injection of ACHN-L cells to the left kidneys were called ACHN-LL cells. The same procedure using orthotopic xenograft of ACHN-LL cells and liver metastatic cells was repeated twice to select for highly metastatic tumors. The cancer cell line (Luc-ACHN-LL), which is highly metastatic and causes high mortality, was selected. Immunodeficient male mice was injected with 3×10^5 Luc-ACHN-LL cells in 50 µL PBS at the right renal capsule. The in vivo luciferase activity was examined every day for up to three weeks so as to assure that there were no leakage of cancer cells at the kidneys immediately after the injection and to monitor the metastasis of these cancer cells. Two to five minutes before utilizing the IVIS Xenogene system, 75 mg/kg D-Luciferin (Xenogen) in PBS was injected to the retro-orbital sinus of each mouse. […]

[5] = tested on: ACHN cells; test: Annexin V-FITC / propidium iodide flow cytometry for apoptosis or necrosis; type: cell-based, Human; conditions: 5 µM sorafenib, 10 µM GW5074 or both; 24 hours; n=4
Method: as §1

Compound: C=C1[C@@H](O)[C@@H]2O[C@]3(CC[C@H](/C=C/[C@@H](C)[C@@H]4CC(C)=C[C@@]5(O[C@H](C[C@@](C)(O)C(=O)O)CC[C@H]5O)O4)O3)CC[C@H]2O[C@@H]1[C@@H](O)C[C@H](C)[C@H]1O[C@@]2(CCCCO2)CC[C@H]1C [Okadaic acid]
- inhibition of dephosphorylation of pDAPK^S308 and growth of ACHN cells [1]: effective

Compound: O=C1Nc2ccc(I)cc2C1=Cc1cc(Br)c(O)c(Br)c1 [GW5074, 3-(3,5-Dibromo-4-hydroxy-benzylidene)-5-iodo-1,3-dihydro-indol-2-one]
- growth inhibition of cells [2]: no growth inhibition
- inhibition effect on xenografted tumor growth (tumor volume) [3]: nearly no inhibition effect
- death within, following injection of cancer cells [4]: ≤ 5 weeks
- average cell necrosis rate [5]: 1.35%

Compound: CNC(=O)c1cc(Oc2ccc(NC(=O)Nc3ccc(Cl)c(C(F)(F)F)c3)cc2)ccn1 [sorafenib]
- growth inhibition of cells [2]: no growth inhibition
- inhibition effect on xenografted tumor growth (tumor volume) [3]: nearly no inhibition effect
- death within, following injection of cancer cells [4]: ≤ 8 weeks
- body weight ([4]; high-dose 60 mg/kg sorafenib): loss of weight
- death within ([4]; high-dose 60 mg/kg sorafenib): ≤ 10 weeks
- average cell necrosis rate [5]: 0.77%
